This is an account of results in ChEMBL document CHEMBL3804813, “Discovery and optimization of new benzofuran derivatives against p53-independent malignant cancer cells through inhibition of HIF-1 pathway” (Bioorg Med Chem Lett, 2016).

By IC50 is commonly meant the point on the concentration scale where inhibition reaches its midpoint. As a reminder, the inhibition is the percentage by which the read-out fell short of the control.

Active and inactive are the calls of the source. The calls are words filed in the database; no cut-off is given here.

The nature of series [1]: Antiproliferative activity against human HCT116 cells expressing wild type p53 assessed as growth inhibition after 72 hrs by MTT assay. The series is classed as functional, cell-based. The settings on record: HCT-116, 72 h.
Series [2] is described as follows: Antiproliferative activity against human p53-null HCT116 cells assessed as growth inhibition after 72 hrs by MTT assay. The format is functional, cell-based. The settings on record: HCT-116, 72 h. In general terms: Tetrazolium assays rely on reduction of a dye to a coloured formazan, in cell work by metabolically active cells.
Series [3] concerns MCF7. The experiment in a line: Antiproliferative activity against human MCF7 cells assessed as growth inhibition after 72 hrs by MTT assay. The series is classed as functional, cell-based. The note with it: MCF7, 72 h.
The nature of series [4]: Antiproliferative activity against human MDA-MB-435S cells assessed as growth inhibition after 72 hrs by MTT assay. The format is functional, cell-based.
The target in series [5] is Hypoxia-inducible factor 1-alpha (Homo sapiens) (UniProt Q16665). The experiment in a line: Inhibition of HIF-1 (unknown origin) expressed in human MCF7 cells co-transfected with hypoxia reporter plasmid p(HRE)3-Luc at 10 uM measured under hypoxia condition after 24 hrs by dual-luciferase reporter assay. The format is cell-based. On the technique in general: Reporter assays use an easily measured gene product as a stand-in for the process of interest.
Sequence of Hypoxia-inducible factor 1-alpha (Homo sapiens) (Q16665 whole entry, looked up): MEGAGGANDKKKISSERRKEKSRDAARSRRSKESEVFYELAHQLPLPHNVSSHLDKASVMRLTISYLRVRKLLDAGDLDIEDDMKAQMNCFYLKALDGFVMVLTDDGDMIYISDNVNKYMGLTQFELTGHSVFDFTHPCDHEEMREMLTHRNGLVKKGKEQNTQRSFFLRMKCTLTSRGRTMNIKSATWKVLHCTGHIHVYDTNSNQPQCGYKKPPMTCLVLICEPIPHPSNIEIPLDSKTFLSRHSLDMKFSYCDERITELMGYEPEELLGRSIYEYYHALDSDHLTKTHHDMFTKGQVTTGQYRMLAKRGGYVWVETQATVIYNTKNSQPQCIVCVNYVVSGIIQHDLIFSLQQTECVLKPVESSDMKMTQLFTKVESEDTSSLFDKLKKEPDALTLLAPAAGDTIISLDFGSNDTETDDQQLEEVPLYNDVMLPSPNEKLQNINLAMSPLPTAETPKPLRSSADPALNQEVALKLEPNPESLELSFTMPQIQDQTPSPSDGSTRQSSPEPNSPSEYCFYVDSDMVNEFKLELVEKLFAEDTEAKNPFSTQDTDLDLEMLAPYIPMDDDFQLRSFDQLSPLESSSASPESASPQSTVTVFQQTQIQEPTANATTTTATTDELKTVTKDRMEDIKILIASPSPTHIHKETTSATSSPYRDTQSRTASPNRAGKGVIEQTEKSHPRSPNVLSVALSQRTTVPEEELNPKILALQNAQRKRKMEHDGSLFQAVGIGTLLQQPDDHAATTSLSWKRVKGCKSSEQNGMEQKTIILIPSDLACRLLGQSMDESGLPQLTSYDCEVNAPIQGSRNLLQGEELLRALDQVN

The test system of series [6] is MCF7. The experiment in a line: Cytotoxicity against human MCF7 cells co-transfected with hypoxia reporter plasmid p(HRE)3-Luc at 20 uM. The series is classed as cell-based. The note with it: mcf7, 20 µM.
In series [7] the target is Hypoxia-inducible factor 1-alpha (Homo sapiens) (UniProt Q16665). Briefly: Inhibition of HIF-1 (unknown origin) expressed in human MCF7 cells co-transfected with hypoxia reporter plasmid p(HRE)3-Luc at 20 uM measured under hypoxia condition after 24 hrs by dual-luciferase reporter assay. The format is cell-based.
For series [8] the target is unchanged. Briefly: Inhibition of HIF1 in human MCF7 cells assessed as reduction in VEGF mRNA expression after 24 hrs under hypoxia condition by real-time PCR analysis. The series is classed as cell-based. A general note: Real-time PCR tracks product formation cycle by cycle.
Series [9] relates to HCT-116. Briefly: Induction of apoptosis in human p53-null HCT116 -/- cells assessed as morphological change at 5 to 20 uM after 48 hrs by Annexin V-FITC/propidium iodide staining based flow cytometry. The series is classed as functional, cell-based.
The test system of series [10] is HCT-116. Briefly: Induction of apoptosis in human p53-null HCT116 -/- cells assessed as viable cells at 5 uM after 48 hrs by Annexin V-FITC/propidium iodide staining based flow cytometry (reference value: 85.26%). The format is functional. The settings on record: HCT-116, 48 h, read-out: Activity.
The test system of series [11] is HCT-116. Briefly: Induction of apoptosis in human p53-null HCT116 -/- cells assessed as early apoptotic cells at 5 uM after 48 hrs by Annexin V-FITC/propidium iodide staining based flow cytometry (reference value: 6.96%). The format is functional.
Series [12] deals with HCT-116. Briefly: Induction of apoptosis in human p53-null HCT116 -/- cells assessed as late apoptotic cells at 5 uM after 48 hrs by Annexin V-FITC/propidium iodide staining based flow cytometry (reference value: 3.11%). The series is classed as functional.
Series [13] has as its system HCT-116. The experiment in a line: Induction of apoptosis in human p53-null HCT116 -/- cells assessed as necrotic cells at 5 uM after 48 hrs by Annexin V-FITC/propidium iodide staining based flow cytometry (reference value: 4.67%). The format is functional.
The test system of series [14] is HCT-116. Briefly: Induction of apoptosis in human p53-null HCT116 -/- cells assessed as viable cells at 10 uM after 48 hrs by Annexin V-FITC/propidium iodide staining based flow cytometry (reference value: 85.26%). The format is functional. The settings on record: HCT-116, 48 h, read-out: Activity.
The test system of series [15] is HCT-116. Briefly: Induction of apoptosis in human p53-null HCT116 -/- cells assessed as early apoptotic cells at 10 uM after 48 hrs by Annexin V-FITC/propidium iodide staining based flow cytometry (reference value: 6.96%). The format is functional.
For series [16], the system named is HCT-116. Briefly: Induction of apoptosis in human p53-null HCT116 -/- cells assessed as late apoptotic cells at 10 uM after 48 hrs by Annexin V-FITC/propidium iodide staining based flow cytometry (reference value: 3.11%). The series is classed as functional.
Series [17] concerns HCT-116. The experiment in a line: Induction of apoptosis in human p53-null HCT116 -/- cells assessed as necrotic cells at 10 uM after 48 hrs by Annexin V-FITC/propidium iodide staining based flow cytometry (reference value: 4.67%). The format is functional.
The test system of series [18] is HCT-116. The experiment in a line: Induction of apoptosis in human p53-null HCT116 -/- cells assessed as viable cells at 20 uM after 48 hrs by Annexin V-FITC/propidium iodide staining based flow cytometry (reference value: 85.26%). The series is classed as functional. The note with it: HCT-116, 48 h, read-out: Activity.
In series [19] the test system is HCT-116. Briefly: Induction of apoptosis in human p53-null HCT116 -/- cells assessed as early apoptotic cells at 20 uM after 48 hrs by Annexin V-FITC/propidium iodide staining based flow cytometry (reference value: 6.96%). The series is classed as functional.
Series [20] deals with HCT-116. Briefly: Induction of apoptosis in human p53-null HCT116 -/- cells assessed as late apoptotic cells at 20 uM after 48 hrs by Annexin V-FITC/propidium iodide staining based flow cytometry ( Rvb = 3.11%). The series is classed as functional.
The subject of series [21] is HCT-116. Briefly: Induction of apoptosis in human p53-null HCT116 -/- cells assessed as necrotic cells at 20 uM after 48 hrs by Annexin V-FITC/propidium iodide staining based flow cytometry (reference value: 4.67%). The series is classed as functional.
Series [22] can be described thus: Cell cycle arrest in human p53-null HCT116 -/- cells assessed as accumulation at G1-phase at 5 uM after 12 hrs by propidium iodide staining based flow cytometry (reference value: 27.78%). The note with it: HCT-116. The series is classed as functional.
Series [23] can be described thus: Cell cycle arrest in human p53-null HCT116 -/- cells assessed as accumulation at S-phase at 5 uM after 12 hrs by propidium iodide staining based flow cytometry (reference value: 69.57%). The settings on record: HCT-116. The format is functional.
Series [24] is described as follows: Cell cycle arrest in human p53-null HCT116 -/- cells assessed as accumulation at G2-phase at 5 uM after 12 hrs by propidium iodide staining based flow cytometry (reference value: 2.35%). The format is functional. The note with it: HCT-116.
Series [25] in a line: Cell cycle arrest in human p53-null HCT116 -/- cells assessed as accumulation at G1-phase at 10 uM after 12 hrs by propidium iodide staining based flow cytometry (reference value: 27.78%). The series is classed as functional. The settings on record: HCT-116.
A short description of series [26]: Cell cycle arrest in human p53-null HCT116 -/- cells assessed as accumulation at S-phase at 10 uM after 12 hrs by propidium iodide staining based flow cytometry (reference value: 69.57%). The note with it: HCT-116. The series is classed as functional.
Series [27] in a line: Cell cycle arrest in human p53-null HCT116 -/- cells assessed as accumulation at G2-phase at 10 uM after 12 hrs by propidium iodide staining based flow cytometry (reference value: 2.35%). The format is functional. The note with it: HCT-116.
Series [28] can be described thus: Cell cycle arrest in human p53-null HCT116 -/- cells assessed as accumulation at G1-phase at 20 uM after 12 hrs by propidium iodide staining based flow cytometry (reference value: 27.78%). The format is functional. The settings on record: HCT-116.
A short description of series [29]: Cell cycle arrest in human p53-null HCT116 -/- cells assessed as accumulation at S-phase at 20 uM after 12 hrs by propidium iodide staining based flow cytometry (reference value: 69.57%). The series is classed as functional. The note with it: HCT-116.
A short description of series [30]: Cell cycle arrest in human p53-null HCT116 -/- cells assessed as accumulation at G2-phase at 20 uM after 12 hrs by propidium iodide staining based flow cytometry (reference value: 2.35%). The format is functional. The note with it: HCT-116.
Series [31] in a line: Decrease in procaspase-3 expression level in human p53-null HCT116 -/- cells at 1 to 20 uM after 24 hrs by western blot analysis. The format is functional, cell-based. The note with it: HCT-116.
Series [32] in a line: Decrease in procaspase-9 expression level in human p53-null HCT116 -/- cells at 1 to 20 uM after 24 hrs by western blot analysis. The format is functional, cell-based. The settings on record: HCT-116.
In series [33] the test system is HCT-116. The experiment in a line: Induction of apoptosis in human p53-null HCT116 -/- cells assessed as early apoptotic cells after 48 hrs by Annexin V-FITC/propidium iodide staining based flow cytometry. The format is functional, cell-based.
The subject of series [34] is HCT-116. Briefly: Induction of apoptosis in human p53-null HCT116 -/- cells assessed as late apoptotic cells after 48 hrs by Annexin V-FITC/propidium iodide staining based flow cytometry. The format is functional, cell-based.
Series [35] can be described thus: Cell cycle arrest in human p53-null HCT116 -/- cells assessed as accumulation at G1-phase after 12 hrs by propidium iodide staining based flow cytometry. The format is functional. The settings on record: HCT-116.

Regarding `CNCCNC(=O)c1oc2ccc(N(Cc3ccc(Cl)cc3)S(=O)(=O)c3ccc(Cl)cc3)cc2c1C`, the IC50 in [1] was 1810 nM; in series [2] it was 4.03 µM; with MCF7 [3], 5.67 µM; in series [4], 1.63 µM. In [5], the inhibition amounted to 22.2%. For the same compound, the Activity result in the series with MCF7 [6] is on record as “Toxic”.
Consider `CNCCNC(=O)c1oc2ccc(N(Cc3ccccc3)S(=O)(=O)c3ccc(Cl)cc3)cc2c1C`, for which the IC50 in [1] is 3000 nM; in series [2], 2.91 µM; in the series on MCF7 [3], 4.56 µM; in series [4], 4.71 µM. Moreover, the inhibition in series [7] was 47.3%; in [8] it was “Dose-dependent effect”. In the series on HCT-116 [9], the result was Active. Besides, the viability at 5 µM in the series on HCT-116 [10] was 77.3%. In addition, the Activity with HCT-116 [11] is 15.42%; with HCT-116 [12] it was 6.74%; in the series with HCT-116 [13] it was 0.5%; in the series on HCT-116 [15], 55.86%; in the series with HCT-116 [16] it was 14.99%; with HCT-116 [17], 1.05%. Further, the Activity is 62.28% in the series with HCT-116 [19]; 34.63% in the series on HCT-116 [20]; 0.02% with HCT-116 [21]; 36.2% in series [22]; 60.2% in series [23]; 3.6% in series [24]. In addition, the Activity in [25] came to 52.8%; in series [26], 42.9%; in series [27], 4.26%; in series [28], 59.7%; in series [29], 32.2%; in series [30], 8.1%. The Activity entry (with HCT-116 [33]; in the series with HCT-116 [34]; in series [35]) was “Dose-dependent effect” throughout. In addition, in the series with HCT-116 [14], the viability at 10 µM worked out at 28.1%. Moreover, the viability at 20 µM with HCT-116 [18] was found to be 3.07%. Moreover, the inhibition entry in series [31] and in series [32] was “Active” throughout.
